Test in all cases: growth of human tumour cells (NCI), 48 h
Experiment [1] concerns A549 NSCLC.
For experiment [2], the system named is BT-549 breast.
The subject of experiment [3] is EKVX NSCLC.
Experiment [4] deals with HCC-2998 colon.
In experiment [5] the test system is HCT-116 colon.
Experiment [6] concerns HL-60(TB) leukemia.
The test system of experiment [7] is M14 melanoma.
Experiment [8] relates to NCI-H522 lung.
In experiment [9] the test system is RPMI-8226 leukemia.
Experiment [10] relates to UACC-257 melanoma.

Each structure is given as a SMILES string. “And” between values parts separate entries of the source, which are not always exact repeats. Equal entries are not always repeated.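 96-well plates; 48 h exposure; 5 concentrations. Endpoints by linear interpolation between flanking doses. Not reached: highest tested concentration assigned. GI50 is the concentration that inhibits growth by half. Definition used: TGI = concentration required for complete inhibition of growth.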

Consider twelve molecules from PubChem BioAssay (NCI).

For the molecule `Nc1nc(N)c2nc(CNc3ccc(C(=O)NC(CC(=O)O)C(=O)O)cc3)cnc2n1` (centres undefined), the GI50 was 0.569 µM in experiment [1]; 1.03 µM in [2]; 1.57 µM in [3]; 1.07 µM in [4]; 0.0773 µM in experiment [5]; 0.756 µM in experiment [6]. The GI50 is 0.556 µM in [7], 3.97 µM in experiment [8], 6.43 µM in experiment [9] and > 33.8 µM in experiment [10]. Besides, the TGI in [1], in experiment [2], in experiment [3], in experiment [4], in experiment [5] and in experiment [6] was > 100 µM each time. Moreover, the TGI in experiment [7], in experiment [8], in [9] and in experiment [10] was > 100 µM throughout.
Take `CC1(N)CCN(c2cccnc2NC(=O)c2nc(-c3ncccc3C(F)(F)F)cnc2N)CC1`: the GI50 in [1] is 22 µM; in experiment [2], 18.2 µM; in experiment [3], 34.9 µM; in [4], > 100 µM; in experiment [5], 13.5 µM; in [6], 12.4 µM. Also, the GI50 was 25.9 µM in experiment [7], 15.1 µM in experiment [8], 24.4 µM in experiment [9] and 18.1 µM in experiment [10]. Moreover, the TGI in [1] is > 100 µM; in experiment [2], > 100 µM; in [3], > 100 µM; in experiment [4] it was > 100 µM; in experiment [5], > 100 µM; in experiment [6], 37.8 µM. Moreover, the TGI in [7] is 80.3 µM; in experiment [8] it was 47.9 µM; in experiment [9] it was > 100 µM; in experiment [10], 34.1 µM.
For the molecule `NC(=O)c1ccc(I)c(N=O)c1`, the GI50 was 42.1 µM in experiment [1]; 40.3 µM in [2]; 81.1 µM in experiment [3]; 67.5 µM in experiment [4]; 18.6 µM in [5]; 29 µM in [6]. Further, the GI50 in [7] was 30.5 µM; in experiment [8], 21.4 µM; in experiment [9] it was 36.9 µM; in experiment [10], 35.3 µM. In addition, the TGI was > 100 µM in experiment [1]; > 100 µM in [2]; > 100 µM in experiment [3]; > 100 µM in experiment [4]; 32.8 µM in experiment [5]; 85.5 µM in experiment [6]. The TGI is 83.1 µM in experiment [7], 55.3 µM in [8], 88.7 µM in experiment [9] and > 100 µM in experiment [10].
For `COc1cc2ccccc2oc1=O`, the TGI in experiment [1], in experiment [2], in experiment [3], in experiment [4], in [5] and in [6] was > 100 µM each time. Further, the TGI in experiment [7], in experiment [8], in experiment [9] and in [10] was > 100 µM throughout.
Regarding `COc1c(O)cc2oc(-c3ccc(O)cc3)cc(=O)c2c1O`, the TGI in experiment [1] was > 100 µM; in [2], > 100 µM; in experiment [3], 98.1 µM; in experiment [4], 80.3 µM; in experiment [5] it was > 100 µM; in experiment [6] it was > 100 µM. Also, the TGI in [7], in experiment [8], in experiment [9] and in experiment [10] was > 100 µM each time.
As to `O=c1ccn(C2CC(O)C(CO)O2)c(=O)[nH]1` (centres undefined), the GI50 in experiment [1], in experiment [2], in experiment [3], in experiment [4], in [5] and in [6] was > 5000 µM each time. Further, the GI50 in experiment [7] is > 5000 µM; in experiment [8], > 5000 µM; in [9], 1190 µM; in experiment [10], > 5000 µM. The TGI in [1], in [2], in experiment [3], in [4], in experiment [5] and in experiment [6] was > 5000 µM throughout. The TGI in experiment [7], in experiment [8], in experiment [9] and in [10] was > 5000 µM in each case.
As to `CC(=O)OC[C@]12CC[C@@H](C(=O)CBr)[C@@H]1[C@H]1CC[C@@H]3[C@@]4(C)CCCNC(C)(C)[C@@H]4CC[C@@]3(C)[C@]1(C)CC2`, the GI50 in [1] was 14.5 µM; in experiment [2], 2.2 µM; in experiment [3] it was 12.5 µM; in [4], 11.5 µM; in experiment [5], 1.84 µM; in experiment [6], 2.11 µM. In addition, the GI50 was 2.38 µM in experiment [7], 2.06 µM in experiment [8], 2.36 µM in experiment [9] and 9.2 µM in [10]. For the same molecule, the TGI in [1] came to 31.9 µM; in experiment [2] it was 5.52 µM; in experiment [3], 25.2 µM; in experiment [4], 26.1 µM; in experiment [5], 3.61 µM; in experiment [6], 4.95 µM. For the same molecule, the TGI was determined as 6.66 µM in experiment [7], 4.6 µM in [8], 6.69 µM in [9] and 23.1 µM in experiment [10].
As for `O=C(O)c1cc2ccc3ccccc3c2oc1=O`, the TGI in experiment [1], in experiment [2], in [3], in experiment [4], in experiment [5] and in experiment [6] was > 100 µM in each case. In addition, the TGI in experiment [7], in [8], in experiment [9] and in experiment [10] was > 100 µM each time.
`COc1ccc2c(c1)nnn1c3ncccc3c(N=O)c21`: the GI50 in experiment [1] is 10.8 µM and 3.87 µM; in experiment [2], 5.06 µM and 1.46 µM; in experiment [3], 3.38 µM and 3.82 µM; in [4], 7.23 µM and 1.24 µM; in experiment [5], 0.06 µM; in [6], 0.0433 µM and 0.359 µM. Also, the GI50 in [7] was 1.57 µM and 3.44 µM; in experiment [8], 1.25 µM; in experiment [9], 0.261 µM and 1.08 µM; in experiment [10] it was 8.21 µM and 2.62 µM. The TGI in experiment [1] was 50 µM and 15.7 µM; in experiment [2], 16.3 µM and 4.68 µM; in experiment [3], 25.3 µM and 61.8 µM; in experiment [4] it was 15.6 µM and 2.79 µM; in experiment [5] it was 0.91 µM; in experiment [8] it was 6.49 µM. Moreover, the TGI in experiment [9] is 1.44 µM and 7.64 µM; in experiment [10] it was 30.8 µM and 13.6 µM.
Regarding `CCCCC[C@H]1C/C=C2/C(=O)C=C[C@@H]2C/C=C\CCCC(=O)O[C@@H](CCCCC)C/C=C2/C(=O)C=C[C@@H]2C/C=C\CCCC(=O)O1`, the GI50 is 0.528 µM in [1]; 0.32 µM in [2]; 0.373 µM in experiment [3]; 0.422 µM in [4]; 0.0896 µM in experiment [5]; 0.136 µM in experiment [6]. Moreover, the GI50 in [7] is 0.273 µM; in experiment [8], 0.16 µM; in [9] it was 0.098 µM; in experiment [10], 0.531 µM. Moreover, the TGI in [1] amounted to 1.35 µM; in experiment [2], 1.02 µM; in experiment [3], 1.03 µM; in [4] it was 0.816 µM; in [5], 0.333 µM; in [6] it was 0.704 µM. Besides, the TGI in experiment [7] was 1.01 µM; in experiment [8] it was 0.655 µM; in experiment [9], 0.599 µM; in experiment [10] it was 1.3 µM.
Regarding `Cc1cc(Cl)ccc1Nc1nc(C(F)(F)F)ccc1C(=O)N/N=C/c1ccc(Cl)cc1`, the GI50 in experiment [1] is 3.02 µM; in experiment [2], 1.34 µM; in experiment [3], 1.25 µM; in [4], 1.45 µM; in [5] it was 2.46 µM; in experiment [6], 2.1 µM. In addition, the GI50 in experiment [7] was 2.34 µM; in experiment [8], 2.23 µM; in experiment [9], 2.01 µM; in experiment [10], 3.67 µM. For the same molecule, the TGI in [1] stood at 27.9 µM; in experiment [2], 4.71 µM; in experiment [3], 4.45 µM; in [4] it was 4.7 µM; in experiment [5], 9.87 µM; in [6], 4.63 µM. Also, the TGI came out at 7.63 µM in [7], 7.96 µM in [8], 6.3 µM in experiment [9] and 16.3 µM in [10].
With `COc1cccc2c1C(=O)c1c(O)c3c(c(O)c1C2=O)CC(O)(C(O)CO)CC3OC1CC(N2CCOCC2)C(O)C(C)O1` (centres undefined), the TGI in [1] was 0.472 µM; in experiment [2] it was 0.206 µM; in experiment [3], 0.0334 µM and 0.146 µM; in experiment [4], 0.00372 µM and 0.0304 µM; in [5] it was 0.143 µM; in experiment [6], 0.195 µM. The TGI in experiment [7] is 0.0288 µM and 0.0381 µM; in experiment [8], 0.0172 µM and 0.0956 µM; in [9] it was 0.147 µM and 0.486 µM; in experiment [10], 0.013 µM and 0.0424 µM. For the same molecule, the GI50 was 0.0304 µM in experiment [3]; 0.0352 µM and 0.0251 µM in [6]; 0.0158 µM in experiment [7]; 0.0264 µM in experiment [8]; 0.0191 µM in [9]; 0.0199 µM in [10].
